According to ChEMBL document CHEMBL1137391, “Synthesis and evaluation of indenoisoquinoline topoisomerase I inhibitors substituted with nitrogen heterocycles” (2006):

Columns and labels:
Format in all cases: functional
UACC-62 = experiment: Cytotoxicity against human UACC62 cell line
SN12C = experiment: Cytotoxicity against human SN12C cell line
HOP-62 = experiment: Cytotoxicity against human HOP62 cell line
HCT-116 = experiment: Cytotoxicity against human HCT116 cell line
SF-539 = experiment: Cytotoxicity against human SF539 cell line
OVCAR-3 = experiment: Cytotoxicity against human OVCAR-3 cell line
DU-145 = experiment: Cytotoxicity against human DU145 cell line
MDA-MB-435 = experiment: Cytotoxicity against human MDA-MB-435 cell line

Row | SMILES | GI50 (UACC-62) [nM] | GI50 (SN12C) [nM] | GI50 (HOP-62) [nM] | GI50 (HCT-116) [nM] | GI50 (SF-539) [nM] | GI50 (OVCAR-3) [nM] | GI50 (DU-145) [nM] | GI50 (MDA-MB-435) [nM]
1 | COc1cc2c3c(n(CCCN4CCCNCC4)c(=O)c2cc1OC)-c1cc2c(cc1C3=O)OCO2 | 457 | 145 | < 5 | 214 | 145 | 5010 | 81 | 2630
2 | COc1cc2c3c(n(CCCn4cncn4)c(=O)c2cc1OC)-c1cc2c(cc1C3=O)OCO2 | < 10 | 85 | 79 | 1910 | 288 | 61700 | 85 | > 100000
3 | COc1cc2c3c(n(CCCN4CCSCC4)c(=O)c2cc1OC)-c1cc2c(cc1C3=O)OCO2 | 37200 |  | 26300 | 72400 | 18200 | 34700 | > 100000 | > 100000
4 | COc1cc2c3c(n(CCCNC4=NCCS4)c(=O)c2cc1OC)-c1cc2c(cc1C3=O)OCO2 | 14 | < 10 | < 10 | < 10 | < 10 | 41 | < 10 | < 10
5 | COc1cc2c3c(n(CCCN4CCN(CCO)CC4)c(=O)c2cc1OC)-c1cc2c(cc1C3=O)OCO2 | 1230 | > 100000 | 9770 | 2340 | 1440 | 15100 | 275 | > 100000
6 | COc1cc2c3c(n(CCCNCCN4CCOCC4)c(=O)c2cc1OC)-c1cc2c(cc1C3=O)OCO2 | 162 | 1480 | < 5 | < 5 | 550 | 525 | 603 | 1950
7 | COc1cc2c3c(n(CCCn4ccnc4)c(=O)c2cc1OC)-c1cc2c(cc1C3=O)OCO2 | < 10 | < 10 | < 10 | < 10 | 37 | 85 | < 10 | 20
8 | COc1cc2c3c(n(CCCn4ccnc4)c(=O)c2cc1OC)-c1ccccc1C3=O | < 10 | < 10 | < 10 | < 10 | < 10 | < 10 | < 10 | 14
9 | COc1cc2c3c(n(CCCN4CCCC(O)C4)c(=O)c2cc1OC)-c1cc2c(cc1C3=O)OCO2 (configuration not stated) | 5010 | 126 | < 5 | < 5 | < 5 | 5750 | < 5 | 977
10 | O=C1c2ccccc2-c2c1c1ccccc1c(=O)n2CCCn1ccnc1 | 790 | 1660 | 2690 | 1410 | 2340 | 1660 | 1410 | 
11 | COc1cc2c3c(n(CCCN4CCNCC4)c(=O)c2cc1OC)-c1cc2c(cc1C3=O)OCO2 | 1200 | 91 | < 5 | 575 | < 5 | 2040 | 15 | 4570
12 | COc1cc2c3c(n(CCCN4CCOCC4)c(=O)c2cc1OC)-c1cc2c(cc1C3=O)OCO2 [INDOTECAN] | 30 | 813 | 1780 | 1150 | 40 | 74100 | 155 | 67600
13 | COc1cc2c3c(n(CCCN4CCC(N)CC4)c(=O)c2cc1OC)-c1cc2c(cc1C3=O)OCO2 | 1290 | 257 | 427 | 120 | 100 | 832 | 182 | 1740
14 | COc1cc2c3c(n(CCCN4CCN(C)CC4)c(=O)c2cc1OC)-c1cc2c(cc1C3=O)OCO2 | 15100 | 11500 | 18200 | 1480 | 17800 | 15100 | 10700 | > 100000
15 | COc1cc2c3c(n(C)c(=O)c2cc1OC)-c1cc2c(cc1C3=O)OCO2 | 4200 | 68000 | 1300 | 35000 |  |  | 37000 | 96000
16 | COc1cc2c3c(n(CCCn4cccn4)c(=O)c2cc1OC)-c1cc2c(cc1C3=O)OCO2 | 269 | 316 | 447 | 1990 | 398 | 56200 | 363 | 7080
17 | O=C1c2ccccc2-c2c1c1ccc([N+](=O)[O-])cc1c(=O)n2CCCn1ccnc1 | 12 | 15 | 190 | 274 | 16 | 864 | 17 | 2170
